Columns and labels:
[1] = Plasma pharmacokinetics after single oral administration to mice; type: in vivo; conditions: male, CD1, mouse, single oral dose (Dose_PO: 10.0-90.0 mg/kg)
Source text: The purpose of this study was to evaluate plasma and tissue exposure of the following compounds after a single oral administration to mice: • 7-(3-(N-(4-fluoro-2,6-dimethylphenyl)sulfamoyl)phenyl)heptanoic acid (indicated below as DFL23806), • 7-(3-(N-(4-chloro-2,6-dimethylphenyl)sulfamoyl)phenyl)heptanoic acid (indicated below as DFL23914) • 7-(3-(N-(2,6-dimethyl-4-(trifluoromethyl)phenyl)sulfamoyl)phenyl)heptanoic acid (indicated below as DFL23922) • 7-(3-(N-(6-fluoro-4-methyl-[1,1′-biphenyl]-3-yl)sulfamoyl)phenyl)heptanoic acid (indicated below as DFL23916) • 7-(3-(N-(5-fluoro-3-methyl-[1,1′-biphenyl]-2-yl)sulfamoyl)phenyl)heptanoic acid (indicated below as DFL23917) • 7-(3-{[4-fluoro-2-methyl-5-(thiophen-2-yl)phenyl]sulfamoyl}phenyl)heptanoic acid (indicated below as DFL24102) […]
A retro-orbital, composite blood sampling at pre-dose or after dosing at 30 min, 1, 2, 6, 8 and 24 hours (three mice/time point) was carried out for the plasma pharmacokinetic assessment. Blood samples were collected in heparinized collection tubes. Samples were taken immediately onto ice and kept cool until centrifugation (10000 g for 3 minutes at about +4° C.). About 50 μL of plasma were stored in a freezer at −80° C. pending analysis.
After samples collection, bioanalysis for concentrations of the test compounds were done using HPLC-MS/MS methods and pharmacokinetic analysis of the compounds in plasma and tissues was performed according to standard non-compartmental approach using Watson system (v 7.6, Thermo Fisher Scientific Waltham, MA, USA) on mean concentration data.

GPR40 = molecular target: T1, GPR40 (Mus musculus, UniProt Q76JU9); experiment: Co-immunoprecipitation of β-arrestin 2 with GPR40 in colon lysates of DSS mice; type: in vivo; conditions: pooled colon lysates, day 39; compared to DSS or DSS+vehicle
T1 construct: Colon lysates (˜900 μg proteins) from 6 mice of each experimental group were pooled; from tissue; host or cells: mouse colon (DSS colitis model)
T1 sequence (Q76JU9 whole entry): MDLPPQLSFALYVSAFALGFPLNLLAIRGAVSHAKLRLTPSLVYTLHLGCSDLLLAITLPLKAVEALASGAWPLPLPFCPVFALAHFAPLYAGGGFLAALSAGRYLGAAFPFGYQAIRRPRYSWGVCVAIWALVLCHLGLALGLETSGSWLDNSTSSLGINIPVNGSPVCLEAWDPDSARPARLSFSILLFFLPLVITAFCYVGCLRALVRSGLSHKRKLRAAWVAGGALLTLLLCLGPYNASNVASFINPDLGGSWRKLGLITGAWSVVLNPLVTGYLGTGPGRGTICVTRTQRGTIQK
Procedure: (§1) The efficiency of DFL in activating the GPR120 and/or GPR40 receptors was tested.
(§2) Agonist-induced GPR120 can engage multiple signalling pathways to regulate distinct physiological outcomes. After ligand binding, B-arrestins, such as B-arrestin 2 can associate with the cytoplasmic domains of GPR120 and couple the receptor to specific downstream signaling pathways (FIG. 9). For this reason, we verified the agonist efficiency in activating GPR120 and GPR40 by immunoprecipitation. Colon lysates (˜900 μg proteins) from 6 mice of each experimental group were pooled, precleared with protein A/G plus-agarose (Santa Cruz) and then incubated with the antibody used for immunoprecipitation (anti-GPR120 or anti-GPR40, Abcam) at 4° C. for 16 h, followed by incubation with protein A/G plus-agarose for 5 h. The agarose beads were then collected by centrifugation, washed four times with lysis buffer, and heated to 95° C. for 5 min after adding Laemmli buffer. The resulting immunoprecipitates were separated by SDS-PAGE and probed with the anti-β-arrestin 2 antibody (Santa Cruz).
(§3) Upon western blotting, a densitometric analysis of the blots was performed using Image J. FIGS. 10 and 11 show the ratio between co-immunoprecipitated β-arrestin 2 and GPR120 (FIG. 10) or GPR40 levels (FIG. 11) and the results of the blotting.

GPR120 = molecular target: T2, GPR120 (Mus musculus, UniProt Q7TMA4); experiment: Co-immunoprecipitation of β-arrestin 2 with GPR120 in colon lysates of DSS mice; type: in vivo
T2 construct: Colon lysates (˜900 μg proteins) from 6 mice of each experimental group were pooled; from tissue; host or cells: mouse colon (DSS colitis model)
T2 sequence (Q7TMA4 1-361): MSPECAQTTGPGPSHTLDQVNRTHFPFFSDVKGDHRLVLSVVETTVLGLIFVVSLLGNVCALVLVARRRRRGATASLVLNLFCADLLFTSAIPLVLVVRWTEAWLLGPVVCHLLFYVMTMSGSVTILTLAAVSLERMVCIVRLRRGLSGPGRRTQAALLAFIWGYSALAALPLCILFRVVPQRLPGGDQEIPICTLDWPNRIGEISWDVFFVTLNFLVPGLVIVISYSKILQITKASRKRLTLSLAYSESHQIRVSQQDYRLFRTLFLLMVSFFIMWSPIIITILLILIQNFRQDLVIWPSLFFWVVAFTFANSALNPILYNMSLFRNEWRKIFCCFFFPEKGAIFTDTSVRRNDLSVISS
Procedure: as §1, §2, §3

human GPR120 = molecular target: T3, human GPR120 (Homo sapiens, UniProt Q5NUL3); experiment: Activation of GPR120 receptor; type: cell-based
T3 sequence (Q5NUL3 1-361): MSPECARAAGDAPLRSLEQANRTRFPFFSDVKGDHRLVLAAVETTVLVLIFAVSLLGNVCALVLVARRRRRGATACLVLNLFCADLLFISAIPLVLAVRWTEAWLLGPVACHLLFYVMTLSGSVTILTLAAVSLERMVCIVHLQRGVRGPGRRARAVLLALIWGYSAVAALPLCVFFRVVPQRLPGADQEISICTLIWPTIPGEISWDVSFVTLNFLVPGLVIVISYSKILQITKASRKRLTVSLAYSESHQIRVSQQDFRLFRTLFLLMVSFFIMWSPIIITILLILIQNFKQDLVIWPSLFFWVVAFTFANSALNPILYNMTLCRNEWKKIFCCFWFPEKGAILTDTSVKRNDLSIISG

- AUC(0-inf) [1]: 405 ng·h/mL
- AUC(0-t) [1]: 354 ng·h/mL
- Cmax [1]: 106 ng/mL
- Tmax [1]: 0.5 h
- half-life [1]: 5.8 h
- GPR40 and β-arrestin 2 association (ratio co-immunoprecipitated β-arrestin 2 / GPR40) (GPR40): no increase
- selectivity GPR120 versus GPR40 (GPR120; from β-arrestin 2 co-immunoprecipitation with GPR120 and GPR40): GPR120 selective agonist
- association between GPR120 and β-arrestin 2 (ratio co-immunoprecipitated β-arrestin 2 / GPR120) (GPR120; pooled colon lysates, day 39, DFL 90 mg/kg, compared to control groups or DSS+5-ASA 60 mg/Kg): higher compared to control groups
- AC50 (human GPR120): 3.9 µM
SMILES: Cc1cc(F)cc(C)c1NS(=O)(=O)c1cccc(CCCCCCC(=O)O)c1 [DFL23806, 7-(3-(N-(4-fluoro-2,6-dimethylphenyl)sulfamoyl)phenyl)heptanoic acid]

Source: US20250177329A1, “GPR120 AGONISTS FOR THE TREATMENT OF INFLAMMATORY BOWEL DISEASE” (Dompe' Farmaceutici SPA, priority 2022, published 2025)
